In PubChem BioAssay (NCI) one finds TGI data, which are given here for 13 molecules.

The structures appear in SMILES notation.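 Grown in 96-well plates, cells were treated for 48 hours with each compound at five concentrations. Insufficient inhibition: endpoint recorded as highest concentration tested. TGI is the concentration that stops growth completely.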

Test systems include DLD-1 colon; HCT-15 colon; HOP-18 NSCLC; KM20L2 colon; LXFL 529 NSCLC; M19-MEL melanoma; RXF-631 renal; SNB-78 CNS; XF 498 CNS; COLO 205 colon; DMS 114 small cell lung; DMS 273 small cell lung; MCF7 breast; NCI/ADR-RES ovarian; T-47D breast.
Test in all cases: NCI anticancer screen, dose series, 48 h

For `CC(C)(C)C(=O)/C=C/c1cccc(Oc2ccccc2)c1`, the TGI with DLD-1 colon came to 28.5 µM; in the assay on HCT-15 colon it was 40.4 µM; with HOP-18 NSCLC, 30.2 µM; with KM20L2 colon, 28.2 µM; in the assay with LXFL 529 NSCLC, 33.1 µM; in the assay with M19-MEL melanoma, 54.2 µM. The TGI with RXF-631 renal was greater than 100 µM; in the assay on SNB-78 CNS, 48.1 µM; with XF 498 CNS it was 32.9 µM.
For the molecule `CCCc1c(C(=O)OCC)[nH]c(C(=O)CCC(=O)c2[nH]c(C(=O)OCC)c(CCC)c2C(=O)OCC)c1C(=O)OCC`, the TGI in the assay with COLO 205 colon, in the assay with DLD-1 colon, with DMS 114 small cell lung, with DMS 273 small cell lung, in the assay on HCT-15 colon and with HOP-18 NSCLC was greater than 100 µM throughout. Besides, the TGI with KM20L2 colon, with LXFL 529 NSCLC, in the assay on M19-MEL melanoma, in the assay with SNB-78 CNS and in the assay on XF 498 CNS was greater than 100 µM each time.
In the case of `CC/C(SC)=[N+](\C)[O-]`, the TGI in the assay with COLO 205 colon was greater than 66.9 µM; in the assay with DLD-1 colon, greater than 69 µM; in the assay with DMS 114 small cell lung, greater than 54.2 µM; in the assay on HCT-15 colon, greater than 100 µM; with HOP-18 NSCLC it was greater than 100 µM; in the assay on KM20L2 colon, greater than 100 µM. Further, the TGI in the assay with LXFL 529 NSCLC, in the assay with M19-MEL melanoma, in the assay with RXF-631 renal, with SNB-78 CNS and in the assay on XF 498 CNS was greater than 100 µM in each case.
Consider `COc1ccc2c(c1)OC(c1ccccc1O)CC2=O` (stereo not drawn), for which the TGI in the assay on DLD-1 colon was greater than 100 µM; with HCT-15 colon, greater than 100 µM; in the assay on HOP-18 NSCLC it was greater than 100 µM; in the assay with KM20L2 colon it was greater than 100 µM; with LXFL 529 NSCLC, 71.5 µM; with SNB-78 CNS, 84.8 µM. For the same molecule, the TGI with XF 498 CNS is greater than 100 µM.
In the case of `COc1ccc(C2S/C(=C\c3ccccc3)C(=O)N2NC(=O)Cc2ccccc2)cc1` (stereo not drawn), the TGI in the assay on COLO 205 colon, in the assay with DLD-1 colon, in the assay with DMS 273 small cell lung, in the assay on HCT-15 colon, in the assay on HOP-18 NSCLC and in the assay with LXFL 529 NSCLC was greater than 100 µM throughout. The same molecule returned a TGI in the assay on M19-MEL melanoma greater than 100 µM.
As for `C/C(=N/NC(N)=S)C(CN(C)C)C(C1=C(O)c2ccccc2OC1)c1ccccc1` (stereo not drawn), the TGI in the assay with COLO 205 colon, in the assay on DLD-1 colon, in the assay on DMS 114 small cell lung, with DMS 273 small cell lung, with HCT-15 colon and in the assay on HOP-18 NSCLC was greater than 100 µM throughout. The TGI with KM20L2 colon, in the assay with LXFL 529 NSCLC, in the assay with M19-MEL melanoma, in the assay with SNB-78 CNS and in the assay with XF 498 CNS was greater than 100 µM throughout.
For the molecule `CN1N=C2c3ccccc3CC[C@H]2C1c1cccc(O)c1` (stereo partly drawn), the TGI with COLO 205 colon, in the assay with DLD-1 colon, in the assay with DMS 114 small cell lung, in the assay on DMS 273 small cell lung, in the assay with HCT-15 colon and in the assay on KM20L2 colon was greater than 100 µM in each case. Besides, the TGI in the assay on LXFL 529 NSCLC, in the assay with M19-MEL melanoma and in the assay on XF 498 CNS was greater than 100 µM each time.
With `COC(=O)C(=O)C(C(=O)OC)C(=O)C(=O)Nc1cc(Cl)c(Cl)cc1Cl` (stereo not drawn), the TGI in the assay with COLO 205 colon is greater than 100 µM; in the assay with DLD-1 colon it was greater than 100 µM; in the assay on DMS 114 small cell lung, 30.8 µM; with DMS 273 small cell lung it was greater than 100 µM; with HCT-15 colon, greater than 100 µM; with HOP-18 NSCLC, greater than 100 µM. Also, the TGI in the assay with KM20L2 colon, in the assay with LXFL 529 NSCLC, in the assay on M19-MEL melanoma, in the assay with RXF-631 renal and in the assay with XF 498 CNS was greater than 100 µM each time.
With `CC(C)C1COC(c2ccc3ccccc3c2-c2c(O[Si](C)(C)C(C)(C)C)ccc3ccccc23)=N1` (stereo not drawn), the TGI in the assay on COLO 205 colon was determined as 33.6 µM; in the assay with DLD-1 colon, 31.4 µM; in the assay with DMS 114 small cell lung, 30.9 µM; with DMS 273 small cell lung it was 42.8 µM; in the assay on HCT-15 colon, 46.7 µM; with KM20L2 colon, 37.2 µM. The TGI in the assay on LXFL 529 NSCLC stood at 28.7 µM; in the assay on M19-MEL melanoma it was 33.7 µM; in the assay with RXF-631 renal, 61.3 µM; in the assay with SNB-78 CNS, 21.4 µM; with XF 498 CNS, 28.9 µM.
For `COC(=O)N/N=C(/Cc1occc(=O)c1O)C(=O)Nc1ccc([N+](=O)[O-])cc1[N+](=O)[O-]`, the TGI in the assay on COLO 205 colon, in the assay on DLD-1 colon, in the assay with DMS 114 small cell lung, in the assay with DMS 273 small cell lung, in the assay on HCT-15 colon and in the assay on HOP-18 NSCLC was greater than 100 µM each time. Besides, the TGI in the assay with KM20L2 colon, with LXFL 529 NSCLC, in the assay with M19-MEL melanoma, in the assay on SNB-78 CNS and in the assay on XF 498 CNS was greater than 100 µM each time.
`COc1cc2c(cc1OC)C(=O)/C(=C/c1ccc([N+](=O)[O-])cc1)CC2`: the TGI with COLO 205 colon, with HCT-15 colon, in the assay on MCF7 breast, with NCI/ADR-RES ovarian and in the assay with T-47D breast was greater than 10 µM in each case.
On to `O=Nc1c(NO)ccc2nn(-c3ccccc3)nc12`, for which the TGI in the assay with COLO 205 colon is greater than 100 µM; in the assay with HCT-15 colon, greater than 100 µM; with MCF7 breast, 19.6 µM; in the assay on NCI/ADR-RES ovarian it was greater than 100 µM; with T-47D breast, greater than 100 µM.
For the molecule `O=C(OCc1ccccc1)N1CCCc2c(n(S(=O)(=O)c3ccccc3)c3ccccc23)C1`, the TGI with COLO 205 colon, in the assay with HCT-15 colon, in the assay on MCF7 breast, in the assay on NCI/ADR-RES ovarian and in the assay with T-47D breast was greater than 100 µM in each case.
